The values that follow come from US20220002333A1, “CRYSTALLINE FORM A OF 2'-FLUORO-4'-SUBSTITUTED NUCLEOSIDE ANALOGUE I AND PREPARATION METHOD AND APPLICATION THEREOF” (Henan Genuine Biotech Co., Ltd., priority 2019, published 2022).

Data set [1] concerns B-cell non-Hodgkin's lymphoma. Briefly: Anticancer activity on B-cell non-Hodgkin's lymphoma. As for the experimental part: The anticancer (non-Hodgkin's lymphoma) activity of the crystalline form A of the compound I was determined according to the literature method (Asian Pacific Journal of cancer prevention 2014, 15, 6829).
(§1) The anticancer activity of the crystalline form A of the compound I on B-cell non-Hodgkin lymphoma, lung cancer, gastric cancer, colorectal cancer and leukemia was determined according to the literature method (Wang, Q. et al Biochemical Pharmacology 2011, 81, 848; Asian Pacific Journal of Cancer Prevention 2014, 15, 6829).

The test system of a further data set is lung cancer. Nature of the data set: Anticancer activity on lung cancer. As for the experimental part: as §1
In another data set the test system is leukemia. Nature of the data set: Anticancer activity on leukemia. As for the experimental part: as §1
Data set [2] can be described thus: Stability evaluation of crystalline forms under high temperature, high humidity and light (XRPD). Type of data set: physicochemical. The note with it: for Stability of crystalline form under high humidity: 40° C. and 75% humidity for five and ten days; for Stability of crystalline form under high temperature: 60° C. for five days and ten days; for Stability in stability evaluation (overall): high temperature, high humidity and light. As for the experimental part: The crystalline forms of the compound were systematically screened by means of unitary method, binary method, cooling, dissolution (positive and negative), diffusion and so on, and two crystalline forms were found: crystalline form A and amorphous crystalline form B. The stabilities of the crystalline form A and the crystalline form B under high temperature, high humidity and light were evaluated respectively. […] These experimental conditions were as follows: the high temperature condition is 60° C. for five days and ten days; the high humidity condition is 40° C. and 75% humidity for five and ten days; the light conditions were 4500 lux for five and ten days.

Data set [3] in a line: Static electricity and mixing uniformity with excipients / content of compound I in tablets. Type of data set: physicochemical. The note with it: for Drug content for each tablet: 10 tablets arbitrarily selected, average 1 mg compound I and 149 mg excipients per 150 mg tablet; for Static: solid compound I. As for the experimental part:
After 10 days of storage at 40° C./75% humidity, 80-90% of the solid compound I with amorphous form B is gradually transformed into stable crystalline form A. The compound of crystalline form A is a loose solid. Because the dosage of the compound I for adults with AIDS is only 1-3 mg per day, which is a low amount, the uniform mixing of the compound with an excipient is crucial to ensure the anti HIV effect of the drug.

The subject of the next data set is T-cell lymphoma. Briefly: Anti-T-cell lymphoma activity in patient-derived tumor xenografts (PDX) mouse model. The data set is classed as in vivo. As for the experimental part:
The inhibitory effect of the crystalline form A of the compound I on T-cell lymphoma was determined by patient-derived tumor xenograft (PDX).
After the patient's T-cell lymphoid carcinoma tissue was sampled, the tissue was transferred to a specific pathogen free (SPF) animal room through a transfer window. In a super clean table, phosphate buffered saline (PBS) buffer with double antibodies, Dulbecco's modified eagle medium (DMEM) medium, Petri dish and ice bag were prepared. An appropriate amount of PBS and DMEM were poured to the Petri dishes on ice. The tissue was taken out and put into PBS for preliminary cleaning, and necrotic and normal tissue was removed. The tissue in PBS was transferred to DMEM. The remaining tissue was cut into small pieces of 20-30 mm^3 patches, which were transplanted into the armpit and back of mice with puncture needles. Each mouse was inoculated with the tissue on one site. The tumors of the inoculated mice were taken out regularly, photographed, and the volume changes thereof were compared (see FIG. 9).
(In general: A xenograft is tissue or cells of one species grown in another, often human tumour cells in immunodeficient mice.)

[4] abbreviates: listed as sheet amorphous solid B.

Read-outs that look alike come from different tables or passages of the source.

Take `[N-]=[N+]=N[C@]1(CO)O[C@@H](n2ccc(N)nc2=O)[C@@H](F)[C@@H]1O` [compound I, 2′-fluoro-4′-substituted nucleoside analogue I]: the “Inhibitory effect on B-cell non-Hodgkin's lymphoma” value in data set [1] is recorded as “significant inhibitory effects”. Besides, the “Inhibitory effect on lung cancer” value in the data set on lung cancer is on record as “significant inhibitory effects”. Also, the “Inhibitory effect on leukemia” value in the data set on leukemia is given as “significant inhibitory effects”.
On to `[N-]=[N+]=N[C@]1(CO)O[C@@H](n2ccc(N)nc2=O)[C@@H](F)[C@@H]1O` [crystalline form A, 2′-fluoro-4′-substituted nucleoside analogue I], for which, in data set [2], the “Stability of crystalline form under high humidity” value is listed as “stable”, the “Stability of crystalline form under high temperature” value was “stable” and the “Stability in stability evaluation (overall)” value was “good stability”. In data set [3], the Mixing with excipients result was “easy to mix evenly with excipients”, the “Drug content for each tablet” value lay within 0.95 to 1.05 mg and the Static result is “no static electricity”. Moreover, the Static result in data set [3] (listed as Crystalline form) is recorded as “No”. For the same compound, the “Inhibition of growth of T-cell lymphoma” value in the data set with T-cell lymphoma (dose 2 mg/kg) is recorded as “significantly inhibit”. Besides, the “Inhibition of growth of T-cell lymphoma” value in the data set with T-cell lymphoma (dose 4 mg/kg) was “significantly inhibit”. In the data set with T-cell lymphoma (dose 8 mg/kg), the “Inhibition of growth of T-cell lymphoma” value was “significantly inhibit”.
Regarding `[N-]=[N+]=N[C@]1(CO)O[C@@H](n2ccc(N)nc2=O)[C@@H](F)[C@@H]1O` [crystalline form B, 2′-fluoro-4′-substituted nucleoside analogue I], in data set [2], the “Stability of crystalline form under high humidity” value is “gradually transformed into crystalline form A”, the “Stability of crystalline form under high temperature” value was “gradually transformed into crystalline form A” and the “Stability in stability evaluation (overall)” value is listed as “generally stable”. For the same compound, the “Portion of solid transformed into stable crystalline form A” value in data set [2] (after 10 days of storage at 40° C./75% humidity) is on record as 80-90%. Also, in data set [3] (listed as Amorphous B), the “Drug content for each tablet” value is 0.5 to 1.5 mg and the Static entry is “Yes”. Also, in data set [3] (setting [4]), the Mixing with excipients entry is “not easy to mix evenly with excipients” and the Static result is “obvious static electricity”.
